| melting point [°C] | Structure (SMILES) |
| --- | --- |
| 229 to 230 | O=C1CC(c2ccc(O)cc2)Oc2cc(OC3OC(CO)C(O)C3O)cc(O)c21 (centres unmarked) |
| 347 to 350 | NCC[C@H]1C[C@H](O)C(=O)O1 (hydrate or solvate) |

Source: PMC9919957 (2023)
